Experimental data published in ChEMBL document CHEMBL3045449, “2-Bromo-1-ethoxy-(2,4-dichloro)styrene and 2,2-dibromo-1-ethoxy-(2,4-dichloro)styrenethe two impurities of bromfenvinphos; their identification, synthesis and full characterization” (J Pestic Sci, 2010).
Activity calls are given as the source filed them.

How the values were obtained:
Assay type in all cases: functional, organism-based
Sitophilus granarius = assay: Insecticidal activity against Sitophilus granarius (granary weevil)
Tetranychus urticae = assay: Insecticidal activity against Tetranychus urticae (two-spotted spider mite)
Musca domestica = assay: Insecticidal activity against Musca domestica (house fly)
Blatta orientalis = assay: Insecticidal activity against Blatta orientalis

Measured: Activity

CCOC(=C(Br)Br)c1ccc(Cl)cc1Cl
inactive: all assays above

CCOC(=CBr)c1ccc(Cl)cc1Cl (mixture of isomers)
inactive: all assays above
